Reference: US11180462B2, “Microbiocidal oxadiazole derivatives” (SYNGENTA PARTICIPATIONS AG, priority 2015, dated 2021)

Experiments:
[1] = system: Glomerella lagenarium (Colletotrichum lagenarium); test: Fungicidal activity against Glomerella lagenarium (Colletotrichum lagenarium) liquid culture / cucumber / preventative (anthracnose); type: cell-based; details: Colletotrichum orbiculare; 20 ppm in the applied formulation; liquid culture (PDB), growth inhibition measured photometrically after 3 to 4 days; compared to untreated control; read-out: disease control
Outline: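 Percent activity against the untreated check was derived from photometric growth measurements made 2 to 7 days after conidia in potato dextrose broth were combined with compound at 20 ppm. Cultures were kept dark at 24 °C and 96% humidity.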

[2] = system: Puccinia recondita f. Sp. Tritici; test: Fungicidal activity against Puccinia recondita f. sp. tritici / wheat / leaf disc preventative (brown rust); type: in vivo; details: foliar, 200 ppm in the applied formulation, wheat leaf segments, preventative, compared to untreated control leaf disks, read-out: disease control
Outline: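 Percent disease control relative to untreated check segments is scored once disease develops, 7 to 9 days after application. Wheat cv. Kanzler segments receive compound spray (200 ppm in formulation) one day before spore inoculation, then sit at 19° C. and 75% rh under 12 h light/12 h dark.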

Phakopsora Pachyrhizi = test: Fungicidal activity against Phakopsora pachyrhizi / soybean / leaf disc preventative (Asian soybean rust); type: in vivo; details: foliar, 200 ppm in the applied formulation, soybean leaf disks, compared to untreated control leaf disks, read-out: disease control
Outline: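 Scored 12 to 14 days post-application as percent control relative to untreated check discs, rust spores were sprayed under the disc one day after compound treatment. Incubation: 20°C, 75% rh, first 24–36 h in darkness, then 12 h daily light; discs kept on water agar.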

[3] = system: Puccinia recondita f. Sp. Tritici; test: Fungicidal activity against Puccinia recondita f. sp. tritici / wheat / leaf disc curative (brown rust); type: in vivo; details: foliar, 24 h, 200 ppm in the applied formulation, wheat leaf segments, curative (applied 1 day after inoculation), compared to untreated control leaf disks, read-out: disease control
Outline: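 Curative leaf-segment test: compound diluted in water applied 1 day after spore inoculation of cv. Kanzler wheat segments on agar. Conditions 19° C, 75% RH, 12 h/12 h light cycle. Read-out: % disease control relative to untreated check, 6 to 8 days after application.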

C#CCN(Cc1ccc(-c2noc(C(F)(F)F)n2)cc1)C(=O)C(C)CC(C)=O (stereo not drawn) [Compound 1.164, 2-methyl-4-oxo-N-prop-2-ynyl-N-[[4-[5-(trifluoromethyl)-1,2,4-oxadiazol-3-yl]phenyl]methyl]-pentanamide]
≥ 80%: inhibition of growth at 20 ppm [1] | pest or weed control at 200 ppm [2] | pest or weed control at 200 ppm (Phakopsora Pachyrhizi) | pest or weed control at 200 ppm [3]

CON(Cc1ccc(-c2noc(C(F)(F)F)n2)c(F)c1)C(=O)C1CC1 [Compound 1.579, N-[[3-fluoro-4-[5-(trifluoromethyl)-1,2,4-oxadiazol-3-yl]phenyl]methyl]-N-methoxy-cyclopropane-carboxamide]
≥ 80%: inhibition of growth at 20 ppm [1] | pest or weed control at 200 ppm [2] | pest or weed control at 200 ppm (Phakopsora Pachyrhizi) | pest or weed control at 200 ppm [3]

N#CC1(C(=O)N(Cc2ccc(-c3noc(C(F)(F)F)n3)cc2)CC2CC2)CC1 [Compound 1.244, 1-cyano-N-(cyclopropylmethyl)-N-[[4-[5-(trifluoromethyl)-1,2,4-oxadiazol-3-yl]phenyl]methyl]-cyclopropane-carboxamide]
≥ 80%: inhibition of growth at 20 ppm [1] | pest or weed control at 200 ppm [2] | pest or weed control at 200 ppm (Phakopsora Pachyrhizi) | pest or weed control at 200 ppm [3]

COCC(=O)N(Cc1ccc(-c2noc(C(F)(F)F)n2)cc1)C1CC1 [Compound 1.777, N-cyclopropyl-2-methoxy-N-[[4-[5-(trifluoromethyl)-1,2,4-oxadiazol-3-yl]phenyl]methyl]-acetamide]
≥ 80%: inhibition of growth at 20 ppm [1] | pest or weed control at 200 ppm [2] | pest or weed control at 200 ppm (Phakopsora Pachyrhizi) | pest or weed control at 200 ppm [3]

CC1CC1C(=O)N(Cc1ccc(-c2noc(C(F)(F)F)n2)cc1)CC1CC1 (stereo not drawn) [Compound 1.223, N-(cyclopropylmethyl)-2-methyl-N-[[4-[5-(trifluoromethyl)-1,2,4-oxadiazol-3-yl]phenyl]methyl]-cyclopropane-carboxamide]
≥ 80%: inhibition of growth at 20 ppm [1] | pest or weed control at 200 ppm [2] | pest or weed control at 200 ppm (Phakopsora Pachyrhizi) | pest or weed control at 200 ppm [3]

C=CCN(Cc1ccc(-c2noc(C(F)(F)F)n2)cc1)C(=O)C(C)C [Compound 1.483, N-allyl-2-methyl-N-[[4-[5-(trifluoromethyl)-1,2,4-oxadiazol-3-yl]phenyl]methyl]-propanamide]
≥ 80%: inhibition of growth at 20 ppm [1] | pest or weed control at 200 ppm [2] | pest or weed control at 200 ppm (Phakopsora Pachyrhizi) | pest or weed control at 200 ppm [3]

O=C(OCCN(Cc1ccc(-c2noc(C(F)(F)F)n2)cc1)C(=O)C1CCCO1)C1CCCO1 (stereo not drawn) [Compound 1.727, 2-[tetrahydrofuran-2-carbonyl-[[4-[5-(trifluoromethyl)-1,2,4-oxadiazol-3-yl]phenyl]methyl]-amino]ethyl tetrahydrofuran-2-carboxylate]
≥ 80%: inhibition of growth at 20 ppm [1] | pest or weed control at 200 ppm [2] | pest or weed control at 200 ppm (Phakopsora Pachyrhizi) | pest or weed control at 200 ppm [3]

CNC(=O)N(Cc1ccc(-c2noc(C(F)(F)F)n2)cc1)OC [Compound 3.4, 1-methoxy-3-methyl-1-[[4-[5-(trifluoromethyl)-1,2,4-oxadiazol-3-yl]phenyl]methyl]urea]
≥ 80%: inhibition of growth at 20 ppm [1] | pest or weed control at 200 ppm [2] | pest or weed control at 200 ppm (Phakopsora Pachyrhizi) | pest or weed control at 200 ppm [3]

O=C(C1CCSCC1)N(Cc1ccc(-c2noc(C(F)(F)F)n2)cc1)C1CC1 [Compound 1.123, N-cyclopropyl-N-[[4-[5-(trifluoromethyl)-1,2,4-oxadiazol-3-yl]phenyl]methyl]-tetrahydrothiopyran-4-carboxamide]
≥ 80%: inhibition of growth at 20 ppm [1] | pest or weed control at 200 ppm [2] | pest or weed control at 200 ppm (Phakopsora Pachyrhizi) | pest or weed control at 200 ppm [3]
